Data reported in ChEMBL document CHEMBL1201862, “PubChem BioAssay data set” (2004).
Active and inactive are the calls of the source.

How the values were obtained:
[1] = target: T1, E3 ubiquitin-protein ligase XIAP (Homo sapiens, UniProt P98170); assay: XIAP antagonists, biochemical, IAP family, fluorescence polarization (AID 1018); assay type: functional
[2] = target: T1, E3 ubiquitin-protein ligase XIAP; assay: Counter Screen using XIAP-Bir3 for Chemical Antagonists of Bir1/2 domains of IAP-family anti-apoptotic proteins. [Related pubchem assays (depositor defined):AID1018, AID1449, AID1514, AID1638, AID1749, AID1750, AID488957, AID488963]
[3] = inhibitors of intracellular T. cruzi replication, confirmation, NIH3T3 host cells, beta-gal luminescence (AID 2044); assay type: functional, cell-based;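 further: intracellular parasites grown in NIH/3T3 mouse fibroblasts as host cells; luminescent beta-galactosidase reporter signal from transgenic T. cruzi replicating inside host cells; inhibitors lower the luminescence signal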
[4] = cytotoxicity toward NIH3T3 fibroblasts, dose response, counter-screen, cell-based, ATP luminescence, mouse fibroblasts (AID 2010); assay type: functional;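 further: cells exposed to compound for about 90 hours before reading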
[5] = target: Sphingosine 1-phosphate receptor 1 (Homo sapiens, UniProt P21453); assay: Fluorescence-based counterscreen assay for S1P4 agonists: Cell-based dose response high throughput screening assay to identify agonists of the Sphingosine 1-Phosphate Receptor 1 (S1P1). [Related pubchem assays (depositor defined):AID1509, AID1523, AID1801, AID463107, AID463118, AID463119, AID463122, AID463123, AID463129, AID463225, AID504400, AID504460]; assay type: functional
[6] = target: T2, Sphingosine 1-phosphate receptor 4 (Homo sapiens, UniProt O95977); assay: Fluorescence dose response cell-based high throughput screening assay for agonists of the Sphingosine 1-Phosphate Receptor 4 (S1P4). [Related pubchem assays: 1509 (Primary screen.), 1523 (Confirmation screen in triplicates.)]; assay type: functional
T2 sequence (O95977 whole entry): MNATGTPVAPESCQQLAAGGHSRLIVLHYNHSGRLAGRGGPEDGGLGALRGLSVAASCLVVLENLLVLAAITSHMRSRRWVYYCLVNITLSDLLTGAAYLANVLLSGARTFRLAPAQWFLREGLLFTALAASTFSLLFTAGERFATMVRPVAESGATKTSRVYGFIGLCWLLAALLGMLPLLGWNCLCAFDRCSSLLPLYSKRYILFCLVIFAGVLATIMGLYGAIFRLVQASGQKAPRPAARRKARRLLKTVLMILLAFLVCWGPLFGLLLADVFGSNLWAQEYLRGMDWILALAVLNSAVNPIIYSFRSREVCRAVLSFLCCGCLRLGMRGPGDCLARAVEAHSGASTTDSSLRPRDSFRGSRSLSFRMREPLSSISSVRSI

[7] = target: T3, Runt-related transcription factor 1/Core-binding factor subunit beta (Homo sapiens, UniProt Q01196+Q13951); assay: inhibitors of RUNX1 Runt–CBFb-SMMHC binding, primary screen, biochemical, FRET, Cerulean-Runt, Venus-CBFb-SMMHC, uHTS (AID 1434); assay type: protein assay;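 further: partner is the CBFb-SMMHC leukemia fusion protein rather than wild-type CBFb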
T3 sequence (Q01196 whole entry, the tested form may be a part): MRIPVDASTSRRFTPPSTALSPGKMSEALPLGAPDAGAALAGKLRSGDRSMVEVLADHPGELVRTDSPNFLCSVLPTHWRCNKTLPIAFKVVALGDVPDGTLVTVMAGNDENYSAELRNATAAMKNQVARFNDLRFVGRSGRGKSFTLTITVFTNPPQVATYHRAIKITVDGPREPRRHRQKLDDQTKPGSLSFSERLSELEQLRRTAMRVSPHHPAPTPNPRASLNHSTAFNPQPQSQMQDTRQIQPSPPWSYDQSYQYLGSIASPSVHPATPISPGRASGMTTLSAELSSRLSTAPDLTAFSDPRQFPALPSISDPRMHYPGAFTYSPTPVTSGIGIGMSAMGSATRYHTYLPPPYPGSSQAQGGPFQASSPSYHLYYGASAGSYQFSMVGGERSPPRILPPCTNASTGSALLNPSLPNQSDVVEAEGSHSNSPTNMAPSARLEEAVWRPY
T3 sequence (Q13951 whole entry, the tested form may be a part): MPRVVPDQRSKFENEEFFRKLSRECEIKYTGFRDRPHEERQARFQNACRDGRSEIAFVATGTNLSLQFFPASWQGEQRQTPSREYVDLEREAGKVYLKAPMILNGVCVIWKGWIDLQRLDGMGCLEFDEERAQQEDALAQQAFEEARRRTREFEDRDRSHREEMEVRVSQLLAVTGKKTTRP

[8] = target: T3, Runt-related transcription factor 1/Core-binding factor subunit beta; assay: inhibitors of RUNX1 Runt–CBFb-SMMHC binding, biochemical, TR-FRET (AID 1438); assay type: protein assay
[9] = cells
[10] = target: Signal transducer and activator of transcription 3 (Homo sapiens, UniProt P40763); assay: STAT3 inhibitors, late-stage profile, late-stage follow-up, cell-based, STAT1 panel, qPCR, cytotoxicity, panel member STAT3 Inhibition (AID 2078)
[11] = target: Signal transducer and activator of transcription 1-alpha/beta (Homo sapiens, UniProt P42224); assay: STAT3 inhibitors, late-stage profile, late-stage follow-up, cell-based, STAT1 panel, qPCR, cytotoxicity, panel member STAT1 Inhibition (AID 2078)
Chain of Signal transducer and activator of transcription 1-alpha/beta (P42224 whole entry, the tested form may be a part): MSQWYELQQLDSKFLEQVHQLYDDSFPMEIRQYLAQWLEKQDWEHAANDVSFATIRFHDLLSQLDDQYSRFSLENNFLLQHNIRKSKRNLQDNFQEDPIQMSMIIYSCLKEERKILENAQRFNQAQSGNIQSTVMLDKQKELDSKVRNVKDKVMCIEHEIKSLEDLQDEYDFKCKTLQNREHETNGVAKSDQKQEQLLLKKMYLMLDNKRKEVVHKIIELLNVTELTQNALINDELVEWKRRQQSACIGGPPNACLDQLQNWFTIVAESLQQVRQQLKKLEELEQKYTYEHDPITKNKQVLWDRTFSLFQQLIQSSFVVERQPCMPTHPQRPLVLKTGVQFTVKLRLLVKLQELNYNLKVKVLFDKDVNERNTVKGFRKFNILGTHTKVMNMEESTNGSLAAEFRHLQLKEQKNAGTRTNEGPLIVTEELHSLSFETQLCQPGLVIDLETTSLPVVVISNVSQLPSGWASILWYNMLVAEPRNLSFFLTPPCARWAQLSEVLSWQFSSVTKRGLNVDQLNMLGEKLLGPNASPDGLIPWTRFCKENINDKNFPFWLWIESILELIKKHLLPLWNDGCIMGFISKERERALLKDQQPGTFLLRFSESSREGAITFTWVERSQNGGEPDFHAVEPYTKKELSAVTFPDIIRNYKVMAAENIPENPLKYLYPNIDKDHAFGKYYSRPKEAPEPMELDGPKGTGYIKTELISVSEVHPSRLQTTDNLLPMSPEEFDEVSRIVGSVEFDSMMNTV

[12] = target: T4, Type-1 angiotensin II receptor (Homo sapiens, UniProt P30556); assay: AT1 receptor agonists, dose response, selectivity assay for APJ receptor agonist project, cell-based, uHTS hits (AID 488865); assay type: functional;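 further: beta-arrestin recruitment to AT1 measured by enzyme fragment complementation luminescence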
T4 sequence (P30556 whole entry): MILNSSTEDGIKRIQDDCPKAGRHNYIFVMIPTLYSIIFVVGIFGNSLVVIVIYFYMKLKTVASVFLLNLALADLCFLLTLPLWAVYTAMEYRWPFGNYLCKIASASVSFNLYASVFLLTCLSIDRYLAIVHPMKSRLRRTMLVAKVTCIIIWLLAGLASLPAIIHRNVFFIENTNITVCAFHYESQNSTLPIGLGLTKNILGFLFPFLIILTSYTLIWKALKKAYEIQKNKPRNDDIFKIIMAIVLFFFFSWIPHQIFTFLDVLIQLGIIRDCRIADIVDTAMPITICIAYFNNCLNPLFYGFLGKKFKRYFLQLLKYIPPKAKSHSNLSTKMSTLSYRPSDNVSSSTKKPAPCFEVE

[13] = target: Intestinal-type alkaline phosphatase (Mus musculus, UniProt P24822); assay: mouse intestinal alkaline phosphatase activators, dose response, biochemical, luminescence, uHTS hits (AID 488783); assay type: functional
Chain of Intestinal-type alkaline phosphatase (Mus musculus, UniProt P24822) (P24822 whole entry): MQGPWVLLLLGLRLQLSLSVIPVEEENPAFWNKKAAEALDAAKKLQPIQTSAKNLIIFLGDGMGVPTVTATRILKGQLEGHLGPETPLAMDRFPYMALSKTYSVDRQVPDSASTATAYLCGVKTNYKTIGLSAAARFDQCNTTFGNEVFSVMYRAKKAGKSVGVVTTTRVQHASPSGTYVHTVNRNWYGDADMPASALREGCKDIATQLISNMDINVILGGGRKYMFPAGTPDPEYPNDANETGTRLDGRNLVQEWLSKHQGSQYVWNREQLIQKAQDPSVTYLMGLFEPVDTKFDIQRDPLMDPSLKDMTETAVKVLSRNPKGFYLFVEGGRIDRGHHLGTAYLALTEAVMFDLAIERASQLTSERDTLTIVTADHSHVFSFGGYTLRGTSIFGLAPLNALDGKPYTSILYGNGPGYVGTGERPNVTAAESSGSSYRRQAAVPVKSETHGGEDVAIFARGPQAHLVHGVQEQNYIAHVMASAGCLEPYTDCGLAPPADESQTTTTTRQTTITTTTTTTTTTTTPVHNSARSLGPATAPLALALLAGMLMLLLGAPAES

[14] = target: Intestinal-type alkaline phosphatase (Homo sapiens, UniProt P09923); assay: activation of human intestinal alkaline phosphatase – biochemical, dose response (AID 488873); assay type: functional
Chain of Intestinal-type alkaline phosphatase (Homo sapiens, UniProt P09923) (P09923 whole entry): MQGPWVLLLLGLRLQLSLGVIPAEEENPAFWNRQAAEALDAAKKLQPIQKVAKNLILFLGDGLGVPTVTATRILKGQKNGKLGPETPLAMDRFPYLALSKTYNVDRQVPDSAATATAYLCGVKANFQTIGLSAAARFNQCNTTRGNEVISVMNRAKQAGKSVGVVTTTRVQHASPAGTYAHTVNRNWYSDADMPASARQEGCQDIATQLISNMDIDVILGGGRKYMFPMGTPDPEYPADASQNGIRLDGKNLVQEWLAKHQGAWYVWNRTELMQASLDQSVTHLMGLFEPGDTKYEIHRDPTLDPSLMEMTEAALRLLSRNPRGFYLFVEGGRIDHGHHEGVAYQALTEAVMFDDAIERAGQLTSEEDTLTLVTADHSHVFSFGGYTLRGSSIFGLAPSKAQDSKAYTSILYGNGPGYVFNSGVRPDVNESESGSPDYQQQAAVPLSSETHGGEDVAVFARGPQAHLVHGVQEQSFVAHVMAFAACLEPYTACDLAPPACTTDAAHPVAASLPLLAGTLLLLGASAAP

[15] = target: T5, Alkaline phosphatase, tissue-nonspecific isozyme (Homo sapiens, UniProt P05186); assay: TNAP enzyme activators, dose response, selectivity assay for mouse IAP activator project, biochemical, TNAP isozyme, mouse IAP uHTS hits (AID 488880); assay type: functional
T5 sequence (P05186 whole entry): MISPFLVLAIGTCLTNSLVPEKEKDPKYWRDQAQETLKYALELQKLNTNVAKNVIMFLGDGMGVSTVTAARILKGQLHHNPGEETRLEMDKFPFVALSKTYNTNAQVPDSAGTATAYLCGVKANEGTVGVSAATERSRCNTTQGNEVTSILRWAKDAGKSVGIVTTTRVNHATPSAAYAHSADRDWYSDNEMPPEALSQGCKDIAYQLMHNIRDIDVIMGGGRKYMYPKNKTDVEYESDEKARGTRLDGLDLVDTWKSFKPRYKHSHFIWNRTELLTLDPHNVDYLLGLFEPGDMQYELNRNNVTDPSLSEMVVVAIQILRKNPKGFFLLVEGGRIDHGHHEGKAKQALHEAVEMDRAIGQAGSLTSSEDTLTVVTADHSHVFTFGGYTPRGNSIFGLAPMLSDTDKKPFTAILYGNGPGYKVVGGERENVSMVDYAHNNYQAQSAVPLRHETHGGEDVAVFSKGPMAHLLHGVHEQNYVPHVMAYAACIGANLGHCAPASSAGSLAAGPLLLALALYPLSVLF

[16] = target: Mu-type opioid receptor (Homo sapiens, UniProt P35372); assay: SAR Analysis of Agonists of the MOR Receptor using an Image-Based Assay - Set 3. [Related pubchem assays (depositor defined):AID1777, AID1785, AID1786, AID1966, AID2133, AID2136, AID2284, AID2285, AID2352]; assay type: functional
[17] = target: Delta-type opioid receptor (Homo sapiens, UniProt P41143); assay: SAR Analysis of Agonists of the DOR Receptor using an Image-Based Assay - Set 3. [Related pubchem assays (depositor defined):AID1777, AID1786]; assay type: functional
Chain of Delta-type opioid receptor (P41143 whole entry): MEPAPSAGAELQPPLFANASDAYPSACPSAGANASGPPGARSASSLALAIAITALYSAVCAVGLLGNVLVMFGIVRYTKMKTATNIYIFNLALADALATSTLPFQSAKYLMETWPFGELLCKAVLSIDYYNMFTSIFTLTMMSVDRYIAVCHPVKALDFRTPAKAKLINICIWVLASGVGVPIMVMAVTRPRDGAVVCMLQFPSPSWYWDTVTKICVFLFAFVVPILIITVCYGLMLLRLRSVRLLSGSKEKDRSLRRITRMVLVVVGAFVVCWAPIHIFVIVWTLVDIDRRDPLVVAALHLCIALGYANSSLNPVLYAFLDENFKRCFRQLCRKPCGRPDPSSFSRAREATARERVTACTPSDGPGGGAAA

[18] = target: T6, Cannabinoid receptor 2 (Homo sapiens, UniProt P34972); assay: SAR analysis of agonists of the Cannabinoid Receptor 2 using an Image-Based Assay - Set 3. [Related pubchem assays (depositor defined):AID2013, AID2026]; assay type: functional
T6 sequence (P34972 whole entry): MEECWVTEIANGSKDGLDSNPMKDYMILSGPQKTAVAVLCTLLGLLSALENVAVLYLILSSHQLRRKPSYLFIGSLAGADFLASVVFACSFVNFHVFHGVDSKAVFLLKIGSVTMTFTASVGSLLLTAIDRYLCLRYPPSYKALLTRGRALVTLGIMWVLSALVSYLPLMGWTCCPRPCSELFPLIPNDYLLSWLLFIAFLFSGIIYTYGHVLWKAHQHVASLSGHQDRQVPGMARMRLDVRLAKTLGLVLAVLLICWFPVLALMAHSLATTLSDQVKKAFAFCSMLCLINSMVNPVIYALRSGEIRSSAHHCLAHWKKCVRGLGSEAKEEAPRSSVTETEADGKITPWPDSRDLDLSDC

[19] = target: T6, Cannabinoid receptor 2; assay: SAR analysis of antagonists of the Cannabinoid Receptor 2 using an Image-Based Assay - Set 3. [Related pubchem assays (depositor defined):AID2013, AID2026]; assay type: functional
[20] = target: T7, G-protein coupled receptor 35 (Homo sapiens, UniProt Q9HC97); assay: SAR analysis of Antagonists of the GPR35 Receptor using an Image-Based Assay - Set 6. [Related pubchem assays (depositor defined):AID2013, AID2026]; assay type: functional
T7 sequence (Q9HC97 whole entry): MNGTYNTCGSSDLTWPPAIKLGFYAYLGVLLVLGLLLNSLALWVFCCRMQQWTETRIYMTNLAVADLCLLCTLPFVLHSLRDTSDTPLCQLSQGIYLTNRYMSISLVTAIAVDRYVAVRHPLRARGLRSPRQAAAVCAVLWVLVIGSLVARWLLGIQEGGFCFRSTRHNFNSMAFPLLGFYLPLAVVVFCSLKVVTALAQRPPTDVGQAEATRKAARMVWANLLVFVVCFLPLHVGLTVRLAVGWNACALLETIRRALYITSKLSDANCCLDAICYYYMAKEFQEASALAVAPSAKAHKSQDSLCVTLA

[21] = target: T7, G-protein coupled receptor 35; assay: SAR analysis of Agonists of the GPR35 Receptor using an Image-Based Assay - Set 4. [Related pubchem assays (depositor defined):AID2013, AID2026]; assay type: functional
[22] = target: G-protein coupled receptor 55 (Homo sapiens, UniProt Q9Y2T6); assay: SAR Analysis of Selective Antagonists of GPR55 using an Image-Based Assay - Set 4. [Related pubchem assays (depositor defined):AID2013, AID2026]; assay type: functional;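 further: antagonism of response to 5 µM lysophosphatidylinositol agonist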
Chain of G-protein coupled receptor 55 (Q9Y2T6 whole entry): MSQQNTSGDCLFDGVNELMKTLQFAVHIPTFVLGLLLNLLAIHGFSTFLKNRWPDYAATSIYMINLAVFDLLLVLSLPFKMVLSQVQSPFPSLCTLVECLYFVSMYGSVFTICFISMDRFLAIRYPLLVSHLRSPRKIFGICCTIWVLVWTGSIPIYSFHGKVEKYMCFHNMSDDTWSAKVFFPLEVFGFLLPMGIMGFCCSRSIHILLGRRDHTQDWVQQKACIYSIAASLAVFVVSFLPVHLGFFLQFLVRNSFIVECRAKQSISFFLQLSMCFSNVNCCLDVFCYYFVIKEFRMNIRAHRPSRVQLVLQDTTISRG

[23] = target: T8, Cannabinoid receptor 1 (Homo sapiens, UniProt P21554); assay: SAR analysis of antagonists of the Cannabinoid Receptor 1 using an Image-Based Assay - Set 4. [Related pubchem assays (depositor defined):AID2013, AID2026]; assay type: functional
T8 sequence (P21554 whole entry): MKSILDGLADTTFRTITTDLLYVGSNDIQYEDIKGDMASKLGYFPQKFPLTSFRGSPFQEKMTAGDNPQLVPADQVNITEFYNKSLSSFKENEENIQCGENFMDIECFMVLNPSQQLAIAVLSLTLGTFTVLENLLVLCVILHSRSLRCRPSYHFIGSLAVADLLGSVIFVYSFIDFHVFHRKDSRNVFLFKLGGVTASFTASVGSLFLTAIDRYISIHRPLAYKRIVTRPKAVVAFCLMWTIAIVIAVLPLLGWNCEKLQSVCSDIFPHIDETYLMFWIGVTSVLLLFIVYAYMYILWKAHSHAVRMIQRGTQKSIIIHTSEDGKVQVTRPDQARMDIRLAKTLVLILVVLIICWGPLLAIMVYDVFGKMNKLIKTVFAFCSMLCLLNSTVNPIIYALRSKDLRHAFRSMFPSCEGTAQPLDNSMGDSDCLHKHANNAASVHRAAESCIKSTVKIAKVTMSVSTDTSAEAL

[24] = target: T8, Cannabinoid receptor 1; assay: SAR analysis of agonists of the Cannabinoid Receptor 1 using an Image-Based Assay - Set 4. [Related pubchem assays (depositor defined):AID2013, AID2026]; assay type: functional
[25] = growth suppression of beta-catenin-knockout colon cells, dose response, cell-based, HCT116, human colon tumor (AID 1045); assay type: functional;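 further: HCT116 colon tumor cells with beta catenin knocked out; cells exposed to compound for 60 hours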
[26] = test system: INS1; assay: beta cell apoptosis inhibitors, cytokine rescue, dose response, luminescence, retest (AID 449756); assay type: functional, cell-based; settings: Rattus norvegicus;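 further: cell death triggered by IL-1 beta plus TNF-alpha plus IFN-gamma mixture; protective hits raise ATP signal compared with cytokine alone wells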
[27] = growth suppression of PTEN-null colon cells, dose response, cell-based, HCT116 PTEN knockout (AID 1047); assay type: functional;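 further: HCT116 colon tumor cells with PTEN knocked out; cells exposed to compound for 60 hours before readout; potency for loss of cell viability measured by luminescence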
[28] = target: SUMO-activating enzyme (Homo sapiens, UniProt Q9UBT2); assay: SUMOylation inhibitor hit validation, confirmation, SUMOylation inhibitor project, biochemical, AlphaScreen (AID 2018); assay type: functional

T1 sequence (P98170 whole entry): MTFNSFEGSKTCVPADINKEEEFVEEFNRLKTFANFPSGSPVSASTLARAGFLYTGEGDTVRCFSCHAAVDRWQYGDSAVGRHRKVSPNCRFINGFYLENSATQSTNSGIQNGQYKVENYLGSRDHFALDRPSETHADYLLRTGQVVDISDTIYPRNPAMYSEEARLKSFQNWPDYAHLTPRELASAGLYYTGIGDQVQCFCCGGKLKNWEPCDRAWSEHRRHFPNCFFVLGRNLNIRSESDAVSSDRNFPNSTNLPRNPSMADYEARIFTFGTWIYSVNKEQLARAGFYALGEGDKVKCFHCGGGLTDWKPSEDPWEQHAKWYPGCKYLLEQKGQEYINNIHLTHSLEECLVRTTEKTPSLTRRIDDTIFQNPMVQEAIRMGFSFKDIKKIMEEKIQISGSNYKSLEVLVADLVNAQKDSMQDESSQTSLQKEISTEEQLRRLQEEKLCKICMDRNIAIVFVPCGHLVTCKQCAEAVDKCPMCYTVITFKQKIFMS

## COc1ccc(-c2nc(Cn3c(SCc4ccccc4F)nc4ccncc43)c(C)o2)cc1
[1]
  IC50: > 100 µM (not active)
[2]
  IC50: > 100 µM (inactive)

## CC(=O)C1=C(C)NC(SCC(=O)c2ccc(Cl)cc2Cl)=C(C#N)C1c1ccco1 (stereo not given)
[3]
  EC50: 0.437 µM (active)
[4]
  EC50: 15.7 µM (active)
[5]
  EC50: > 49.8 µM (inactive)
[6]
  EC50: > 49.8 µM (not active)

## CCN1CCS/C1=C\C=C\C1=[N+](CC)CCS1
[3]
  EC50: < 0.1 µM (active)
[7]
  IC50: 1.35 µM (active)
[4]
  EC50: > 60 µM (not active)
[8]
  IC50: > 100 µM (inactive)
[9]
  EC50: 0.028 µM (active)

## NNC(=O)c1cc2c(N3CCC(Cc4ccccc4)CC3)ncnc2s1
[10]
  IC50: 13.7 µM (inactive)
[11]
  IC50: > 55.7 µM (inactive)

## O=c1oc2cc(OCc3ccc([N+](=O)[O-])cc3)ccc2c2c1CCCC2
[12]
  EC50: > 100 µM (inactive)

## Cc1ccc(NC(=O)CCNS(=O)(=O)c2ccc3nc(O)oc3c2)c(Cl)c1
[13]
  EC50: 14.9 µM (active)
[14]
  EC50: 20.4 µM (active)
[15]
  EC50: 28.1 µM (active)

## Cc1cc(C)c(CSc2nnc(-c3ccccn3)n2Cc2ccco2)c(C)c1
[16]
  EC50: > 32 µM (inactive)
[17]
  EC50: > 64 µM (inactive)

## N=c1c(C(=O)NCc2cccnc2)cc2c(=O)n3ccccc3nc2n1C1CCCC1
[18]
  EC50: 7.94 µM (active)
[19]
  IC50: > 32 µM (inactive)
[20]
  IC50: > 32 µM (inactive)
[21]
  EC50: > 32 µM (inactive)
[22]
  IC50: 5.85 µM (active)
[23]
  IC50: > 32 µM (inactive)
[24]
  EC50: > 32 µM (inactive)

## CCCCCCCC(=O)Nc1ccc(C(=O)N/N=C/c2cccc([N+](=O)[O-])c2)cc1
[25]
  EC50: 2.55 µM (active)
[26]
  AC50: 4.85 µM (active)
[27]
  EC50: 3.02 µM (active)
[28]
  IC50: 34.7 µM (active)
